Numbered stars: 1 amine (or outer) side, 2 acyl side, 3 side chain; on linkers, the order of the positions; unused ones are H or OH. Square brackets hold non-standard residues; d marks the D form. Peptide text beside a SMILES is read from it. * marks the point of attachment. X3 = O=C1C=C(CCC/C=C/C=C/C(=O)[*:2])CC(C(O)N[*:1])O1; X4 = O=C1C=C(CCC/C=C/C=C/C(=O)[*:2])CC(CN[*:1])O1; NMeW = CN[CH](Cc1c[nH]c2ccccc12)C(=O)O; X2 = C/C(=C\C(C)N[*:1])C(=O)[*:2]; Dhb = C/C=C(\N)C(=O)O; X1 = C/C=C/C=C\C(=O)*; Dha = C=C(N)C(=O)O
Experiments:
bladder cancer = test: Antitumor activity, MTT cell viability, bladder cancer; type: cell-based; settings: 50 μg/mL, 24 hours, P<0.01
Procedure: (§1) In a 96-well microplate, 100 μL of culture medium was put in each well and inoculate four cell strains with a fusion degree of 80% at a density of 8×10^3 cells. Cells were grown at 37° C., CO2 (5%) and air (95%). Each 96-well plate was placed with a concentration gradient of 0˜100 μg/mL of test compounds HTM, HTMA, HTMB, and HTMP. After 24 hours of incubation, the medium was removed, and 0.5 mg/mL MTT solution was added to each medium with cells and continue to incubate the cells for 4 hours at 37° C. Then 100 μL of DMSO was added to dissolve formazan crystals. Finally, absorbance was measured at 570 nm using a microplate reader (Bioteck EON, USA). The viability of the cells was calculated as the percentage of cell viability compared to vehicle control-treated cells, which were arbitrarily assigned as 100% viability. Each independent experiment was repeated five times. (*P<0.05, **P<0.01, ***P<0.001)

[1] = test system: morphine reward memory reconsolidation; test: Drug reward memory reconsolidation, morphine; type: in vivo, SD rats; settings: 3 mg/kg i.p. after exposure to drug-paired box; group II vs group I; 7th day after reward memory activation; P<0.05
Procedure: (§2) Drug reward memory reconsolidation: Morphine, an opioid representative, and cocaine, a euphoric representative, were used to establish model addiction. On the first day, baseline was assessed by placing the rats in the center compartment of the CPP apparatus and allowing ad libitum access to all compartments for 15 minutes. And then, male SD rats were divided into the saline+morphine group, the HTMB (3 mg/kg)+morphine group, the saline+cocaine group, and the HTMB (3 mg/kg, i.p.)+cocaine group. The rats were exposed to CPP training from day 2 to 9. On the 10th day, the channel between the three boxes was opened, and the rats were allowed to move freely in the three boxes for 15 minutes for the CPP test. On the 11th day, the CPP expressing rats screened for CPP formation were divided into four groups: the group I (morphine+saline), the group II (morphine+3 mg/kg HTMB), the group III (cocaine+saline), and the group IV (cocaine+3 mg/kg HTMB). After exposure to drug-paired box for 10 minutes, groups I and III were injected with saline (1 ml/kg, i.p.), and the groups II and IV were injected with HTMB (3 mg/kg, i.p.). 24 hours after injection, we defined this as 1 day of activation of the reward memory. The CPP scores were measured on the 7th day after reward memory activation.

breast cancer = test: Antitumor activity, MTT cell viability, breast cancer; type: cell-based; settings: 50 μg/mL, 24 hours
Procedure: as §1

renal cancer = test: Antitumor activity, MTT cell viability, renal cancer; type: cell-based; settings: […], 24 hours, P<0.01
Procedure: as §1

[2] = Antioxidant activity, DPPH free radical scavenging; type: biochemical; settings: 1~50 μg/mL, 0.1 mM DPPH, absorbance at 517 nm
Procedure: In this experiment, a 0.1 mM DPPH solution was prepared with ethanol, and each sample solution/dispersion was separately mixed with the DPPH solution in order to dilute it into a reaction product with a concentration gradient of 1˜50 μg/mL to evaluate the concentration-dependent antioxidant potential. The reaction product was measured for its absorbance (AS) at 517 nm using an ultraviolet-visible spectrophotometer, and its antioxidant activity was measured using DPPH removal as an indicator. The percentage of DPPH free radical scavenging is calculated by the following formula: […]
AS is the absorbance of the sample and A0 is the absorbance of the control (only DPPH solution).

[3] = test system: cocaine reward memory reconsolidation; test: Drug reward memory reconsolidation, cocaine; type: in vivo, SD rats; settings: 3 mg/kg i.p. after exposure to drug-paired box; group IV vs group III; 7th day after reward memory activation; P<0.05
Procedure: as §2

HepG2 cells [4] = test: Cellular assay for hepatoprotective activity, CCl4-induced liver injury cell model; type: cell-based; settings: compared with the CCl4 group; HepG2 cell homogenates
Procedure: HepG2 cells were seeded into 24-well plates and kept at 37° C. in 5% CO2 in order to achieve 80% fusion. To evaluate the effects of HTMA, HTMB, and HTMP on aspartate aminotransferase (AST) and alanine aminotransferase (ALT) activity, and compare the results with those of Silymarin (positive control) (FIG. 26), a cellular assay for hepatoprotective activity was carried out using a CCl4-induced liver injury cell model. The cells were treated with the compounds followed by ultrasound disruption and cell homogenization to prepare the cell homogenates for analysis.

[5] = test system: carrageenan-induced paw inflammation; test: Anti-inflammatory effect in inflammatory model induced by carrageenan (paw); type: in vivo, Kunming mice; settings: 10 mg/mL; for right hind foot thickness: 10 μL subcutaneous into right hind paw, 4 hours after carrageenan injection, vs carrageenan+solvent group
Procedure: Male Kunming mice weighing 18˜22 g were adaptively reared for 1 day, and then randomly divided into […] (5˜6 mice per group): the saline+solvent group, the saline+HTM group, the saline+HTMP group, the saline+HTMA group, the saline+HTMB group, the saline+rapamycin (250 nM) group, the carrageenan+solvent group, the carrageenan+HTM group, the carrageenan+HTMP group, the carrageenan+HTMA group, the carrageenan+HTMB group, and the carrageenan+rapamycin (250 nM) group. Where doses used for HTM, HTMP, HTMA, and HTMB were set at 1, 3, and 10 mg/mL, and their solutions all contained 5% DMSO. Experiments were designed based on previous studies (Zhang et al., 2018). Carrageenan was used to induce paw inflammation, and the experimental procedure was as follows:
(1) The thickness of the right hind foot of mice was measured with a vernier caliper before the experiment, and the measurement site was marked.
(2) The experimental group was then subcutaneously injected into the right hind paw with 10 μL of different concentrations of compound solutions. The control group was injected with 10 μL saline into the right hind paw.
(3) After administration, the carrageenan group was injected subcutaneously with 30 μL of 1% carrageenan solution into the right hind paw, and the other groups were injected with an equal volume of saline. The thickness of the right hind foot of each mouse was measured at the same site every 1 hour for the following 4 hours to observe the effect of the compounds on the change in foot thickness.

[6] = test system: alpha-naphthyl isothiocyanate-induced liver injury; test: Animal assay for hepatoprotective activity, alpha-naphthyl isothiocyanate-induced liver injury; type: in vivo, Wistar rats
Procedure: Male Wistar rats weighing around 220 g were randomly divided into 7 groups with 12 rats in each group. After grouping, they were fed a standard diet under standard conditions and were orally gavaged continuously. The dosages of the positive control groups obeticholic acid and silymarin were 10 mg/kg and 5 mg/kg respectively. The HTMA group was divided into low, medium, and high-dose groups with doses of 2.5, 5, and 10 mg/kg. The control and model groups were orally gavaged with 0.5% sodium carboxymethyl cellulose (solvent) daily. After 7 days of gavage, the rats fasted for 12 hours. On the 8th day, their weight was measured, and all rats except for the control group were intraperitoneally injected with alpha-naphthyl isothiocyanate (50 mg/kg, dissolved in olive oil) to induce liver injury. The rats in the control group were intraperitoneally injected with the same amount of olive oil. After two more days of gavage and 12 hours of fasting, blood samples were taken to detect biochemical indicators reflecting the degree of liver cell damage (FIGS. 27A˜27C) and bile stasis (FIGS. 28A˜28E), and liver immunohistochemical detection was performed (FIGS. 29A, 29B and 30A˜30F).

HepG2 cells [7] = test: Protection of the cell membrane of HepG2 after CCl4 injury (DiO/DAPI confocal imaging); type: cell-based; settings: HTMA pre-treatment 12 hours, then 70% CCl4 injury fluid 1 hour; vs model group
Procedure: Well-growing HepG2 cells were plated into confocal dishes with 1 mL of cell suspension containing 5×10^5 cells per dish. After 24 hours of incubation, pre-treat the cells with HTMA for 12 hours. The culture medium was removed from the confocal dish, then phenol red-free DMEM medium was added to the control group, 70% CCl4 injury fluid was added to the model and treatment groups. The dishes were placed in a 37° C. incubator for 1 hour to induce liver injury. After modeling, the culture medium was removed, the cells were rinsed with PBS, and fixed with 4% paraformaldehyde at room temperature for 10 minutes. Then the cells were rinsed with PBS three times, each time for 5 minutes. 10 μM DiO was added to the dish and stained the cells at room temperature for 30 minutes. Then the cells were rinsed with PBS three times, each time for 5 minutes. DAPI was dropped to counterstain the cell nucleus, incubating it in the dark for 30 minutes, and then the cells were rinsed with PBS three times. The images of the cells were captured using a laser scanning confocal microscope (Leica TCS SP8). The experimental design includes two positive controls: silymarin(S) and obeticholic acid (OBC).

morphine-induced CPP = test: Conditioned place preference (CPP) experiments; type: in vivo, SD rats; settings: HTMB 3 mg/kg + morphine vs saline + morphine; test on the 10th day; P<0.05
Procedure: Conditioned place preference (CPP) experiments: Morphine, an opioid representative, and cocaine, a euphoric representative, were used to establish a model of addiction. On the first day, the baseline was assessed by placing the rats in the center compartment of the CPP apparatus and allowing ad libitum access to all compartments for 15 minutes. And then, male SD rats were divided into the saline+morphine group, the HTMB (3 mg/kg)+morphine group, the saline+cocaine group, and the HTMB (3 mg/kg, i.p.)+cocaine group. The rats were exposed to CPP training from day 2 to 9. On the 10th day, the channel between the three boxes was opened, and the rats were allowed to move freely in the three boxes for 15 minutes for the CPP test.

[8] = test system: acute inflammatory visceral pain caused by acetic acid; test: Writhing test (acetic acid); type: in vivo, Balb/c mice; settings: 30 minutes before 0.6% acetic acid i.p., counted within 20 minutes, vs solvent group, P<0.05
Procedure: The writhing test: Male Balb/c mice weighting 18˜22 g were randomly divided into four groups (9˜10 per group): the vehicle group (DMSO:saline=1:4, 1 ml/kg), the HTMB (1 mg/kg) group, the HTMB (3 mg/kg) group, and the HTMB (10 mg/kg) group. After tail vein administration for 30 minutes, mice were injected intraperitoneally with 10 mL/kg of freshly prepared 0.6% acetic acid (Rediet Tesfaye, et al. 2020), and the number of body twists of mice was observed and recorded within 20 minutes.

[9] = high-dose HTMA (HH) 10 mg/kg, oral gavage, vs liver injury model group, blood

SMILES: C=C(NC(=O)/C=C\C=C\CCCC1=CC(=O)OC(C(O)NC(=O)C(C)=CC(C)NC(=O)/C=C\C=C\C)C1)C(=O)NC(C(=O)N1C(=O)[C@@H](Cc2c[nH]c3ccccc23)N(C)C(=O)/C1=C/C)C(C)OC (stereo partly shown) [HTM, Hangtaimycin]
- survival rate of bladder cancer (bladder cancer): significantly inhibited
- CPP scores, morphine reward memory reconsolidation [1]: inhibit
- survival rate of breast cancer (breast cancer; P<0.05): significantly inhibited
- survival rate of renal cancer (renal cancer): significantly inhibited
- antioxidant capacity (DPPH free radical scavenging) [2]: have antioxidant capacity
- CPP scores, cocaine reward memory reconsolidation [3]: inhibit

SMILES: C=C(NC(=O)/C=C/C=C/CCCC1=CC(=O)OC(C(O)NC(=O)/C(C)=C/C(C)NC(=O)/C=C\C=C\C)C1)C(=O)NC(C(=O)N/C(=C\C)C(=O)N(C)C(Cc1c[nH]c2ccccc12)C(=O)OC)C(C)OC (stereo not shown) [HTMA, Hangtaimycin A] (X1-[X2][X3][Dha]T(Me)[Dhb][NMeW]-OMe; configuration not given here)
- survival rate of bladder cancer (bladder cancer): significantly inhibited
- ALT levels (HepG2 cells [4]): significantly reduced
- AST levels (HepG2 cells [4]): significantly reduced
- right hind foot thickness ([5]; P<0.05): reduced
- survival rate of breast cancer (breast cancer; P<0.01): significantly inhibited
- effects on other biochemical indicators relative to high-dose HTMA ([6]; 2.5 mg/kg oral gavage (HTMA low dose LH)): weaker
- LDH levels ([6]; 2.5 mg/kg oral gavage (HTMA low dose LH), vs liver injury model group): significantly reduced
- effects on other biochemical indicators relative to high-dose HTMA ([6]; 5 mg/kg oral gavage (HTMA medium dose MH; silymarin)): weaker
- LDH levels ([6]; 5 mg/kg oral gavage (HTMA medium dose MH; silymarin), vs liver injury model group): significantly reduced
- levels of LDH ([6]; 10 mg/kg oral gavage (HTMA high dose HH; obeticholic acid), vs liver injury model group): significantly reduce
- pathological conditions of liver tissue damage (liver tissue staining) ([6]; all doses of HTMA (2.5, 5, 10 mg/kg oral gavage), vs liver injury model group): therapeutic effect
- levels of ALP [6, 9]: significantly reduce
- levels of ALT [6, 9]: significantly reduce
- levels of AST [6, 9]: significantly reduce
- levels of GGT [6, 9]: significantly reduce
- levels of TBA [6, 9]: significantly reduce
- levels of TBIL [6, 9]: significantly reduce
- cell membrane morphology (DiO fluorescence) (HepG2 cells [7]): protective effect on the cell membrane
- antioxidant capacity (DPPH free radical scavenging) [2]: does not

SMILES: C=C(NC(=O)/C=C/C=C/CCCC1=CC(=O)OC(CNC(=O)/C(C)=C/C(C)NC(=O)/C=C\C=C\C)C1)C(=O)NC(C(=O)N/C(=C\C)C(=O)N(C)C(Cc1c[nH]c2ccccc12)C(=O)OC)C(C)OC (stereo not shown) [HTMB, Hangtaimycin B] (X1-[X2][X4][Dha]T(Me)[Dhb][NMeW]-OMe; configuration not given here)
- survival rate of bladder cancer (bladder cancer): significantly inhibited
- CPP scores, morphine-induced CPP (morphine-induced CPP): inhibit
- ALT levels (HepG2 cells [4]): significantly reduced
- AST levels (HepG2 cells [4]): significantly reduced
- improvement of the inflammation caused by carrageenan, comparison among HTMP, HTMA and HTMB [5]: best results
- right hind foot thickness ([5]; P<0.05): reduced
- number of leukocytes per unit area (HE staining) ([5]; carrageenan+HTMB group vs carrageenan+solvent group, P<0.05): statistical difference
- survival rate of breast cancer (breast cancer; P<0.05): significantly inhibited
- survival rate of renal cancer (renal cancer): significantly inhibited
- number of body twists ([8]; 3 mg/kg tail vein): significantly lower
- number of body twists ([8]; 10 mg/kg tail vein): significantly lower
- antioxidant capacity (DPPH free radical scavenging) [2]: have antioxidant capacity

From patent US12441763B2, “Hangtaimycin derivatives and their preparation methods and application” (WUHAN UNIVERSITY, priority 2022, dated 2025)
